Laboratory results taken from ChEMBL document CHEMBL4387753 (Bioorg Med Chem, 2019).
Converted amounts (≈) assume the structure as drawn.

What was measured:
Type in all cases: functional
[1] = tested on: Escherichia coli; test: Antibacterial activity against Escherichia coli ATCC 25922 incubated for 24 hrs by CLSI protocol based broth microdilution method; conditions: ATCC 25922, 24 h
[2] = tested on: Bacillus subtilis; test: Antibacterial activity against Bacillus subtilis ATCC 9372 incubated for 24 hrs by CLSI protocol based broth microdilution method; conditions: ATCC 9372, 24 h
[3] = tested on: Staphylococcus aureus; test: Antibacterial activity against methicillin-resistant Staphylococcus aureus ATCC 43300 incubated for 24 hrs by CLSI protocol based broth microdilution method; conditions: ATCC 43300, 24 h
[4] = tested on: Staphylococcus aureus; test: Antibacterial activity against penicillin-resistant Staphylococcus aureus clinical isolate incubated for 24 hrs by CLSI protocol based broth microdilution method
[5] = tested on: Staphylococcus aureus; test: Antibacterial activity against Staphylococcus aureus ATCC 25923 incubated for 24 hrs by CLSI protocol based broth microdilution method; conditions: ATCC 25923, 24 h
[6] = tested on: Bacillus pumilus; test: Antibacterial activity against Bacillus pumilus CMCC63202 incubated for 24 hrs by CLSI protocol based broth microdilution method; conditions: CMCC63202, 24 h
[7] = tested on: Pseudomonas aeruginosa; test: Antibacterial activity against Pseudomonas aeruginosa ATCC 27853 incubated for 24 hrs by CLSI protocol based broth microdilution method; conditions: ATCC 27853, 24 h
[8] = tested on: Staphylococcus aureus; test: Antibacterial activity against Staphylococcus aureus clinical isolate incubated for 24 hrs by CLSI protocol based broth microdilution method
[9] = tested on: Staphylococcus aureus; test: Bactericidal activity against Staphylococcus aureus ATCC 43300 assessed as 3 log reduction in number of colony forming units incubated for 24 hrs followed by aliquots transfer to tryptic soy agar and grown for 24 hrs; conditions: ATCC 43300, 24 h
[10] = tested on: Staphylococcus aureus; test: Bactericidal activity against methicillin-resistant Staphylococcus aureus ATCC 43300 assessed as log reduction in viable bacterial count at 2 ug/ml incubated for 24 hrs by time-kill curve assay
[11] = tested on: Staphylococcus aureus; test: Bactericidal activity against Staphylococcus aureus ATCC 25923 assessed as 3 log reduction in number of colony forming units incubated for 24 hrs followed by aliquots transfer to tryptic soy agar and grown for 24 hrs; conditions: ATCC 25923, 24 h
[12] = tested on: Staphylococcus aureus; test: Bactericidal activity against penicillin-resistant Staphylococcus aureus clinical isolate assessed as 3 log reduction in number of colony forming units incubated for 24 hrs followed by aliquots transfer to tryptic soy agar and grown for 24 hrs

SMILES | MIC [1] [µg/mL] | MIC [2] [µg/mL] | MIC [3] [µg/mL] | MIC [4] [µg/mL] | MIC [5] [µg/mL] | MIC [6] [µg/mL] | MIC [7] [µg/mL] | MIC [8] [µg/mL] | MBC [9] [µg/mL] | Activity [10] [log10CFU/ml] | MBC [11] [µg/mL] | MBC [12] [µg/mL]
NC(=O)c1c(F)ccc(OCc2nn(-c3ccc(Cl)c(Cl)c3)c(=O)o2)c1F | > 64 | 4 (≈ 9.61 µM) | 64 (≈ 154 µM) | > 64 | > 64 | 4 (≈ 9.61 µM) | > 64 | 64 (≈ 154 µM) | – | – | – | –
CCCCc1ccc(-n2nc(COc3ccc(F)c(C(N)=O)c3F)oc2=O)cc1 | > 64 | 0.015 (≈ 0.0372 µM) | 64 (≈ 159 µM) | > 64 | > 64 | 0.5 (≈ 1.24 µM) | > 64 | 2 (≈ 4.96 µM) | – | – | – | –
CC(C)(C)c1ccc(-n2nc(COc3ccc(F)c(C(N)=O)c3F)oc2=O)cc1 | > 64 | 1 (≈ 2.48 µM) | 8 (≈ 19.8 µM) | 16 (≈ 39.7 µM) | 8 (≈ 19.8 µM) | 2 (≈ 4.96 µM) | > 64 | 16 (≈ 39.7 µM) | – | – | – | –
CC(C)c1ccc(-n2nc(COc3ccc(F)c(C(N)=O)c3F)oc2=O)cc1 | > 64 | 1 (≈ 2.57 µM) | 16 (≈ 41.1 µM) | 32 (≈ 82.2 µM) | 16 (≈ 41.1 µM) | 2 (≈ 5.14 µM) | > 64 | 16 (≈ 41.1 µM) | – | – | – | –
Cc1cccc(-n2nc(COc3ccc(F)c(C(N)=O)c3F)oc2=O)c1 | > 64 | 16 (≈ 44.3 µM) | 64 (≈ 177 µM) | > 64 | 64 (≈ 177 µM) | 64 (≈ 177 µM) | > 64 | 64 (≈ 177 µM) | – | – | – | –
NC(=O)c1c(F)ccc(OCCc2nn(-c3ccc(Br)cc3)c(=O)o2)c1F | > 64 | 1 (≈ 2.27 µM) | 2 (≈ 4.54 µM) | 4 (≈ 9.09 µM) | 4 (≈ 9.09 µM) | ≤ 0.125 | > 64 | 4 (≈ 9.09 µM) | – | – | – | –
NC(=O)c1c(F)ccc(OCc2nn(-c3cccc(Cl)c3)c(=O)o2)c1F | > 64 | 8 (≈ 21 µM) | > 64 | > 64 | > 64 | > 64 | > 64 | > 64 | – | – | – | –
NC(=O)c1c(F)ccc(OCc2nn(Cc3ccc(Br)cc3)c(=O)o2)c1F | > 64 | 8 (≈ 18.2 µM) | 64 (≈ 145 µM) | > 64 | > 64 | 32 (≈ 72.7 µM) | > 64 | 64 (≈ 145 µM) | – | – | – | –
Cc1cc(Cl)ccc1-n1nc(COc2ccc(F)c(C(N)=O)c2F)oc1=O | > 64 | 0.5 (≈ 1.26 µM) | 2 (≈ 5.05 µM) | 4 (≈ 10.1 µM) | 4 (≈ 10.1 µM) | 0.5 (≈ 1.26 µM) | > 64 | 4 (≈ 10.1 µM) | – | – | – | –
CN[C@H](CC(C)C)C(=O)N[C@H]1C(=O)N[C@@H](CC(N)=O)C(=O)N[C@H]2C(=O)N[C@H]3C(=O)N[C@H](C(=O)N[C@H](C(=O)O)c4cc(O)cc(O)c4-c4cc3ccc4O)[C@H](O)c3ccc(c(Cl)c3)Oc3cc2cc(c3O[C@@H]2O[C@H](CO)[C@@H](O)[C@H](O)[C@H]2O[C@H]2C[C@](C)(N)[C@H](O)[C@H](C)O2)Oc2ccc(cc2Cl)[C@H]1O [VANCOMYCIN] | – | – | – | – | – | – | – | – | 1 (≈ 0.69 µM) | 4 | 2 (≈ 1.38 µM) | 1 (≈ 0.69 µM)
NC(=O)c1c(F)ccc(OCc2nn(Cc3ccc(Cl)cc3)c(=O)o2)c1F | > 64 | 8 (≈ 20.2 µM) | 64 (≈ 162 µM) | > 64 | > 64 | 32 (≈ 80.9 µM) | > 64 | > 64 | – | – | – | –
COc1ccc(-n2nc(COc3ccc(F)c(C(N)=O)c3F)oc2=O)cc1 | > 64 | 1 (≈ 2.65 µM) | 4 (≈ 10.6 µM) | 4 (≈ 10.6 µM) | 2 (≈ 5.3 µM) | 8 (≈ 21.2 µM) | > 64 | 4 (≈ 10.6 µM) | – | – | – | –
CC(C)(C)n1nc(COc2ccc(F)c(C(N)=O)c2F)oc1=O | > 64 | 32 (≈ 97.8 µM) | > 64 | > 64 | > 64 | > 64 | > 64 | 16 (≈ 48.9 µM) | – | – | – | –
Cc1ccc(-n2nc(COc3ccc(F)c(C(N)=O)c3F)oc2=O)cc1 | > 64 | 0.5 (≈ 1.38 µM) | 4 (≈ 11.1 µM) | 4 (≈ 11.1 µM) | 4 (≈ 11.1 µM) | 8 (≈ 22.1 µM) | > 64 | 4 (≈ 11.1 µM) | – | – | – | –
